Laboratory results as given in patent US9346753B2, “Dithiol mucolytic agents” (PARION SCIENCES, INC., priority 2013, dated 2016).
Where a name gives a salt, the structure may show the parent alone.

Assay: DTNB assay: rate of disulfide bond reduction
Type: biochemical
Set-up: unit not given here
Details: 2nd order kinetic
Experimental: DTNB ASSAY: This assay determines the rate which a mucolytic agent can reduce a disulfide bond using 5,5-Dithiobis(2-nitrobenzoic acid). DTNB in various pH buffers and allows comparison of the kinetic rates of reducing agents. First, reducing agent stock solutions (30 mM) were made up in DMSO. Each compound stock solution was diluted, […] in 1 ml 50 mM Tris-HCl buffer, pH 7.5, and then added in a 1:1 volumetric ratio to a solution of 100 mM DTNB in 50 mM Tris-HCl buffer, pH 7.5. Max Abs412 was measured and then utilized to calculate the activity concentration. If the observed activity concentrations differed from expected activity concentrations by more than 5%, the volume was accordingly adjusted to kinetically test the rate in the next step. After having added the reducing agents, diluted in a range of pH buffer solutions (pH 6.0-7.5), to 45 mM DTNB in 50 mM Tris-HCl and measured the Abs412 for 5 min rates were calculated as a 2nd order kinetic.

| SMILES | Kinetic Reaction Rates of Reduction of DTNB (pH 6) | Kinetic Reaction Rates of Reduction of DTNB (pH 6.5) | Kinetic Reaction Rates of Reduction of DTNB (pH 7) | Kinetic Reaction Rates of Reduction of DTNB (pH 7.5) |
| --- | --- | --- | --- | --- |
| O[C@H](CS)[C@H](O)CS (racemic) [DTT, dithiothreitol, reference compound] | 69 | 176 | 382 | 2088 |
| N=C(N)NCCCC[C@H](N)C(=O)NCCOc1ccc(CS)c(CS)c1 [C, (S)-2-amino-N-(2-(3,4-bis(mercaptomethyl)phenoxy)ethyl)-6-guanidinohexanamide] | 2460 | 7122 | 12313 | 17317 |
| N=C(N)NCCCC[C@@H](N)C(=O)NCCOc1ccc(CS)c(CS)c1 [Compound B, (R)-2-amino-N-(2-(3,4-bis(mercaptomethyl)phenoxy)ethyl)-6-guanidinohexanamide Hydrochloride] | 1491 | – | – | – |
| CC(=O)NCCCC[C@H](N)C(=O)NCCOc1ccc(CS)c(CS)c1 [Compound K, (S)-6-acetamido-2-amino-N-(2-(3,4-bis(mercaptomethyl)phenoxy)ethyl)hexanamide] | 678 | 1820 | 3775 | 9143 |
| OC[C@@H](O)[C@@H](O)[C@H](O)[C@@H](O)CNCCOc1ccc(CS)c(CS)c1 [Compound O, (2R,3R,4R,5S)-6-(2-(3,4-bis(mercaptomethyl)phenoxy)ethylamino)hexane-1,2,3,4,5-pentaol hydrochloride] | 921 | 2500 | 5412 | 13547 |
| NCCCC[C@@H](N)C(=O)NCCOc1ccc(CS)c(CS)c1 [Compound V, (R)-2,6-diamino-N-(2-(3,4-bis(mercaptomethyl)phenoxy)ethyl)hexanamide Hydrochloride] | 1419 | 4568 | 6192 | 10043 |
| NCCCC[C@H](N)C(=O)NCCOc1cc(CS)c(CS)cc1OCCNC(=O)[C@@H](N)CCCCN [Compound W, (2S,2′S)-N,N′-(2,2′-(4,5-bis(mercaptomethyl)-1,2-phenylene)bis(oxy)bis(ethane-2,1-diyl))bis(2,6-diaminohexanamide) Hydrochloride] | 4850 | – | – | – |
| N=C(N)NCCCC[C@H](N)C(=O)NCCCC[C@H](N)C(=O)NCCOc1ccc(CS)c(CS)c1 [E, (S)-2-amino-N-((S)-5-amino-6-(2-(3,4-bis(mercaptomethyl)phenoxy)ethylamino)-6-oxohexyl)-6-guanidinohexanamide Hydrochloride] | 5933 | 13718 | 16393 | 17109 |
| N=C(N)NCCCC[C@H](N)C(=O)NCCOc1cc(CS)c(CS)cc1OCCNC(=O)[C@@H](N)CCCCNC(=N)N [H, (2S,2′S)-N,N′-(2,2′-(4,5-bis(mercaptomethyl)-1,2-phenylene)bis(oxy)bis(ethane-2,1-diyl))bis(2-amino-6-guanidinohexanamide) Hydrochloride] | 6835 | – | – | – |
| CC(C)(C)OC(=O)NCCOc1ccc(CS)c(CS)c1 [I, tert-butyl 2-(3,4-bis(mercaptomethyl)phenoxy)ethylcarbamate] | 285 | 745 | 1916 | 7265 |
| NCCOc1ccc(CS)c(CS)c1 [KK, (4-(2-aminoethoxy)-1,2-phenylene)dimethanethiol] | 873 | 2411 | 5163 | 13896 |
| NCCCC[C@H](N)C(=O)NCCOc1ccc(CS)c(CS)c1 [L, (S)-2,6-diamino-N-(2-(3,4-bis(mercaptomethyl)phenoxy)ethyl)hexanamide] | 1911 | 5565 | 8847 | 14566 |
| N=C(N)NCCOc1ccc(CS)c(CS)c1 [LL, 1-(2-(3,4-bis(mercaptomethyl)phenoxy)ethyl)guanidine] | 743 | 2352 | 4661 | 8241 |
| OC[C@@H](O)[C@@H](O)[C@H](O)[C@@H](O)CN(CCOc1ccc(CS)c(CS)c1)C[C@H](O)[C@@H](O)[C@H](O)[C@H](O)CO [N, (2R,2′R,3R,3′R,4R,4′R,5S,5'S)-6,6′-(2-(3,4-bis(mercaptomethyl)phenoxy)ethylazanediyl)dihexane-1,2,3,4,5-pentaol hydrochloride] | 952 | 2366 | 4382 | 9532 |
| CCCCCCN(CCOc1ccc(CS)c(CS)c1)C[C@H](O)[C@@H](O)[C@H](O)[C@H](O)CO [P, (2R,3R,4R,5S)-6-((2-(3,4-bis(mercaptomethyl)phenoxy)ethyl)(hexyl)amino)hexane-1,2,3,4,5-pentaol hydrochloride] | 1018 | 2701 | 6180 | 13243 |
| CN(C)CCOc1ccc(CS)c(CS)c1 [Q, (4-(2-(dimethylamino)ethoxy)-1,2-phenylene)dimethanethiol hydrochloride] | 954 | 2984 | 6077 | 15927 |
| N=C(NCCOc1ccc(CS)c(CS)c1)NC(=O)c1nc(Cl)c(N)nc1N [R, 3,5-diamino-N-(N-(2-(3,4-bis(mercaptomethyl)phenoxy)ethyl)carbamimidoyl)-6-chloropyrazine-2-carboxamide hydrochloride] | 2901 | 7382 | 13522 | 16870 |
| NCCCC[C@H](N)C(=O)NCCCC[C@H](N)C(=O)NCCOc1ccc(CS)c(CS)c1 [S, (S)-2,6-diamino-N-((S)-5-amino-6-(2-(3,4-bis(mercaptomethyl)phenoxy)ethylamino)-6-oxohexyl)hexanamide] | 4483 | 10715 | 13732 | 15469 |
| NCCCC[C@H](N)C(=O)NCCCC[C@H](N)C(=O)NCCCC[C@H](N)C(=O)NCCOc1ccc(CS)c(CS)c1 [T, (S)-2,6-diamino-N-((S)-5-amino-6-((S)-5-amino-6-(2-(3,4-bis(mercaptomethyl)phenoxy)ethylamino)-6-oxohexylamino)-6-oxohexyl)hexanamide] | 5144 | – | – | – |
